Test results as given in ChEMBL document CHEMBL5518230, “Identification of a Novel Selective CDK9 Inhibitor for the Treatment of CRC: Design, Synthesis, and Biological Activity Evaluation” (J Med Chem, 2024).
Activity calls are given as the source filed them. The rule behind the calls is not given here.

Columns and labels:
[1] = MRT (0 to infinity) in Sprague-Dawley rat at 2 mg/kg,iv administration measured for 0.25 to 24 hrs by LC-MS/MS analysis; type: ADME, organism-based; conditions: in vivo, time 0.25-24 hrs
HCT-116 [2] = test: Growth inhibition of human HCT-116 cells incubated for 48 hrs by CCK-8 assay; type: functional
HT-29 = test: Growth inhibition of human HT-29 cells incubated for 48 hrs by CCK-8 assay; type: functional
[3] = molecular target: Cyclin-dependent kinase 2 (Homo sapiens, UniProt P24941); test: Inhibition of CDK2 (unknown origin)
[4] = molecular target: Cyclin-dependent kinase 4 (Homo sapiens, UniProt P11802); test: Inhibition of CDK4 (unknown origin)
[5] = molecular target: Cyclin-dependent kinase 5 (Homo sapiens, UniProt Q00535); test: Inhibition of CDK5 (unknown origin)
[6] = molecular target: Cyclin-dependent kinase 6 (Homo sapiens, UniProt Q00534); test: Inhibition of CDK6 (unknown origin)
[7] = molecular target: Cyclin-dependent kinase 7 (Homo sapiens, UniProt P50613); test: Inhibition of CDK7 (unknown origin)
[8] = molecular target: Cyclin-dependent kinase 8 (Homo sapiens, UniProt P49336); test: Inhibition of CDK8 (unknown origin)
[9] = molecular target: T1, Cyclin-dependent kinase 9 (Homo sapiens, UniProt P50750); test: Inhibition of CDK9 (unknown origin)
[10] = Half life in human liver microsomes at 100 uM measured upto 60 mins in presence of NADPH by LC-MS/MS analysis; type: ADME, Microsome
[11] = Intrinsic clearance in human liver microsomes at 100 uM measured upto 60 mins in presence of NADPH by LC-MS/MS analysis; type: ADME, Microsome; conditions: 1 h
[12] = Stability in human liver microsomes assessed as compound remaining at 100 uM measured upto 60 mins in presence of NADPH by LC-MS/MS analysis; type: ADME, Microsome; conditions: read-out: Stability
CYP2C9 = CYP2C9 (Homo sapiens, UniProt P11712); test: Inhibition of CYP2C9 in human liver microsomes using sulfaphenazole as […] at 10 uM preincubated for 10 mins followed by NADPH addition measured after 15 mins by LC-MS/MS analysis relative to control; type: ADME, Microsome; conditions: probe sulfaphenazole, time 25 min
CYP2C19 = CYP2C19 (Homo sapiens, UniProt P33261); test: Inhibition of CYP2C19 in human liver microsomes using benzylnirvanol as […] at 10 uM preincubated for 10 mins followed by NADPH addition measured after 15 mins by LC-MS/MS analysis relative to control; type: ADME, Microsome; conditions: probe benzylnirvanol, time 25 min
[13] = Selectivity index, ratio of GI50 for growth inhibition of human SW480 cells to GI50 for growth inhibition of human HCT-116 cells; type: functional
[14] = Selectivity index, ratio of GI50 for growth inhibition of human CCC-HIE-2 cells to GI50 for growth inhibition of human HCT-116 cells
[15] = Half life in Sprague-Dawley rat at 2 mg/kg,iv administration measured for 0.25 to 24 hrs by LC-MS/MS analysis; type: ADME, organism-based; conditions: in vivo, time 0.25-24 hrs
[16] = Tmax in Sprague-Dawley rat at 2 mg/kg,iv administration measured for 0.25 to 24 hrs by LC-MS/MS analysis; type: ADME, organism-based; conditions: in vivo, time 0.25-24 hrs
[17] = Cmax in Sprague-Dawley rat at 2 mg/kg,iv administration measured for 0.25 to 24 hrs by LC-MS/MS analysis; type: ADME, organism-based; conditions: in vivo, time 0.25-24 hrs
[18] = AUC (0 to infinity) in Sprague-Dawley rat at 2 mg/kg,iv administration measured for 0.25 to 24 hrs by LC-MS/MS analysis; type: ADME, organism-based; conditions: in vivo, time 0.25-24 hrs
[19] = AUC (0 to infinity) in Sprague-Dawley rat at 10 mg/kg,po administration measured for 0.25 to 24 hrs by LC-MS/MS analysis; type: ADME, organism-based; conditions: in vivo, time 0.25-24 hrs
[20] = MRT (0 to t) in Sprague-Dawley rat at 10 mg/kg,po administration measured for 0.25 to 24 hrs by LC-MS/MS analysis; type: ADME, organism-based; conditions: in vivo, time 0.25-24 hrs
[21] = molecular target: T1, Cyclin-dependent kinase 9; test: Inhibition of human CDK9 at 100 nM by kinase profiling assay relative to control
[22] = molecular target: Serine/threonine-protein kinase Nek1 (Homo sapiens) (UniProt Q96PY6); test: Inhibition of human NEK1 at 100 nM by kinase profiling assay relative to control
[23] = molecular target: Serine/threonine-protein kinase PLK2 (Homo sapiens) (UniProt Q9NYY3); test: Inhibition of human PLK2 at 100 nM by kinase profiling assay relative to control
[24] = molecular target: Mitogen-activated protein kinase kinase kinase kinase 4 (Homo sapiens) (UniProt O95819); test: Inhibition of human HGK at 100 nM by kinase profiling assay relative to control
HCT-116 [25] = test: Inhibition of colony formation in human HCT-116 cells assessed as reduction in colony number incubated for 14 days by crystal violet staining assay; type: functional, cell-based; conditions: time 14.0 day
HCT-116 [26] = test: Induction of apoptosis in human HCT-116 cells assessed as increase in caspase-3 activity incubated for 48 hrs by GreenNuc substrate based flow cytometric analysis; type: functional, cell-based
HCT-116 [27] = test: Induction of apoptosis in human HCT-116 cells assessed as downregulation of RNA polymerase II phosphorylation at Ser2 residue at 25 to 400 nM incubated for 48 hrs by Western blotting analysis; type: functional, cell-based; conditions: dose 25-400 nM
HCT-116 [28] = test: Induction of apoptosis in human HCT-116 cells assessed as downregulation of PARP expression at 25 to 400 nM incubated for 48 hrs by Western blotting analysis; type: functional, cell-based; conditions: dose 25-400 nM
HCT-116 [29] = test: Antitumor activity against human HCT-116 cells xenografted in BALB/c mouse assessed as tumor growth inhibition at po administrated once daily for 3 weeks; type: functional, organism-based
HCT-116 [30] = test: Antitumor activity against human HCT-116 cells xenografted in BALB/c mouse assessed as downregulation of RNA polymerase II phosphorylation at 25 mg/kg,po administrated once daily for 3 weeks by Western blotting analysis; type: functional, organism-based
[31] = Toxicity in BALB/c mouse xenografted with human HCT-116 cells assessed as heart morphological change at 25 mg/kg,po administrated once daily for 3 weeks by hematoxylin and eosin staining based microscopic analysis; type: organism-based; conditions: in vivo, 504 h
[32] = Toxicity in BALB/c mouse xenografted with human HCT-116 cells assessed as heart morphological change at 50 mg/kg,po administrated once daily for 3 weeks by hematoxylin and eosin staining based microscopic analysis; type: organism-based; conditions: in vivo, 504 h
[33] = Toxicity in BALB/c mouse xenografted with human HCT-116 cells assessed as liver morphological change at 50 mg/kg,po administrated once daily for 3 weeks by hematoxylin and eosin staining based microscopic analysis; type: organism-based; conditions: in vivo, 504 h
[34] = Toxicity in BALB/c mouse xenografted with human HCT-116 cells assessed as spleen morphological change at 50 mg/kg,po administrated once daily for 3 weeks by hematoxylin and eosin staining based microscopic analysis; type: organism-based; conditions: in vivo, 504 h
[35] = Toxicity in BALB/c mouse xenografted with human HCT-116 cells assessed as lung morphological change at 25 mg/kg,po administrated once daily for 3 weeks by hematoxylin and eosin staining based microscopic analysis; type: organism-based; conditions: in vivo, 504 h
[36] = Toxicity in BALB/c mouse xenografted with human HCT-116 cells assessed as lung morphological change at 50 mg/kg,po administrated once daily for 3 weeks by hematoxylin and eosin staining based microscopic analysis; type: organism-based; conditions: in vivo, 504 h

T1 sequence (P50750 whole entry): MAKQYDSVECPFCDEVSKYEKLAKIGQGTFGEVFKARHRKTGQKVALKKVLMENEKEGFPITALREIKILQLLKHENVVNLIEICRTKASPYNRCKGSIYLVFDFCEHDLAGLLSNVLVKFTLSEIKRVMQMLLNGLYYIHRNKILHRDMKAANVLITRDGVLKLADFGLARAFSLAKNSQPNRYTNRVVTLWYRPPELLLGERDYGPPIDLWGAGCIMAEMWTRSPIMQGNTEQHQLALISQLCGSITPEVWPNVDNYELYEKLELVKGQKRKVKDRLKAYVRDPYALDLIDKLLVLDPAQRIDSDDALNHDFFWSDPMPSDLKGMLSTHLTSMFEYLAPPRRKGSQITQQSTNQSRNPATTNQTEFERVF
Chain of CYP2C9 (P11712 whole entry): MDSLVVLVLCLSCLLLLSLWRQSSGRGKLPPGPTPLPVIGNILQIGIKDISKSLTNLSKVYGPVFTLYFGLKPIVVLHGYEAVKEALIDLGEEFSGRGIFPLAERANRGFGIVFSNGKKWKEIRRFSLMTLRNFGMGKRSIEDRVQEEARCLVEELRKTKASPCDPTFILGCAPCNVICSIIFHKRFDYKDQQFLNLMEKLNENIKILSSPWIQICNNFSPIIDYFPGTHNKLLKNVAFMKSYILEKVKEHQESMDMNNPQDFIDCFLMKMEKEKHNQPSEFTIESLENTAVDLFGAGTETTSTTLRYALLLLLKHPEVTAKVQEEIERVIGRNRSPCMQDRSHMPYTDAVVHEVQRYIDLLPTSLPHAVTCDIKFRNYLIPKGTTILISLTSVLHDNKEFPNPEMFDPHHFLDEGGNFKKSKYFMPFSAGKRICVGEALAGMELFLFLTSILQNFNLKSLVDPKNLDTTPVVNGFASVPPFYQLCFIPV
Chain of Cyclin-dependent kinase 4 (P11802 whole entry): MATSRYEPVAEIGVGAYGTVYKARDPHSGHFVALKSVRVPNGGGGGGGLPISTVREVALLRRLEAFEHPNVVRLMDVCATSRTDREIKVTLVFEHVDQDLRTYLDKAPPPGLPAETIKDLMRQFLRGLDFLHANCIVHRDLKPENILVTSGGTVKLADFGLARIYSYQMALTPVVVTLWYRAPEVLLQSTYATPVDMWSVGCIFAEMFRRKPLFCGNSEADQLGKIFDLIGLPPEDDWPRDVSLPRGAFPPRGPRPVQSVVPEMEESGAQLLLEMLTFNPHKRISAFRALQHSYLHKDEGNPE
Chain of Cyclin-dependent kinase 7 (P50613 whole entry): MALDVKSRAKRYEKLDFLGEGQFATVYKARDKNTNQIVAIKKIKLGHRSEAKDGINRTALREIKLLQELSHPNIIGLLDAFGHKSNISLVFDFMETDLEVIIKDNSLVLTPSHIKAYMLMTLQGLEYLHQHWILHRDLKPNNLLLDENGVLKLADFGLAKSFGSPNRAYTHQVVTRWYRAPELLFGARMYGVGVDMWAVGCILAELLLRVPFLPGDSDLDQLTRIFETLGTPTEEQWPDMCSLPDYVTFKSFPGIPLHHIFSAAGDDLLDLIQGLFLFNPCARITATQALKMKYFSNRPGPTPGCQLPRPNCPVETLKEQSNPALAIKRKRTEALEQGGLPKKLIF
Chain of Cyclin-dependent kinase 8 (P49336 whole entry): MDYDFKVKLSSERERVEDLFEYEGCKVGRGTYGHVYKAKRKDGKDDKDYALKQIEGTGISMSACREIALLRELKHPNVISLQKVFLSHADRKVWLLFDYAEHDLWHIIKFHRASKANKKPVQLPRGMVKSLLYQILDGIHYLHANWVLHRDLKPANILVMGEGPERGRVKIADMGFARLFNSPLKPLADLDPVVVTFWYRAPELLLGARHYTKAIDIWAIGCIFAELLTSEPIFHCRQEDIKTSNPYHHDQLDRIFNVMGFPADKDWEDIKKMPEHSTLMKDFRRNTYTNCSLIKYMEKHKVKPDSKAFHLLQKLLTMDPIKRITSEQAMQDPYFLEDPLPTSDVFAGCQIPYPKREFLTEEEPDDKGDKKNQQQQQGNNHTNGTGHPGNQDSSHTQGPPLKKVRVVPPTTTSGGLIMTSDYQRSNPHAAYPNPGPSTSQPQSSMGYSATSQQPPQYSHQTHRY
Chain of Cyclin-dependent kinase 6 (Q00534 whole entry): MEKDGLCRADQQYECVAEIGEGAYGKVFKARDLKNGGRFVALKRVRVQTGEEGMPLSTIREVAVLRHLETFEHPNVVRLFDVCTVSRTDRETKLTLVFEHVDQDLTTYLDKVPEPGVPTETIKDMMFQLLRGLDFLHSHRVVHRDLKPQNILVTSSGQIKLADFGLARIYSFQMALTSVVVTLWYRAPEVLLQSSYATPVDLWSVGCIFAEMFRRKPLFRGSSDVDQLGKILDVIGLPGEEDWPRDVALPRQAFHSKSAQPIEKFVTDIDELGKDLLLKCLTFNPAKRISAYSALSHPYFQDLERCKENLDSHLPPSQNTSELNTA
Chain of CYP2C19 (P33261 whole entry): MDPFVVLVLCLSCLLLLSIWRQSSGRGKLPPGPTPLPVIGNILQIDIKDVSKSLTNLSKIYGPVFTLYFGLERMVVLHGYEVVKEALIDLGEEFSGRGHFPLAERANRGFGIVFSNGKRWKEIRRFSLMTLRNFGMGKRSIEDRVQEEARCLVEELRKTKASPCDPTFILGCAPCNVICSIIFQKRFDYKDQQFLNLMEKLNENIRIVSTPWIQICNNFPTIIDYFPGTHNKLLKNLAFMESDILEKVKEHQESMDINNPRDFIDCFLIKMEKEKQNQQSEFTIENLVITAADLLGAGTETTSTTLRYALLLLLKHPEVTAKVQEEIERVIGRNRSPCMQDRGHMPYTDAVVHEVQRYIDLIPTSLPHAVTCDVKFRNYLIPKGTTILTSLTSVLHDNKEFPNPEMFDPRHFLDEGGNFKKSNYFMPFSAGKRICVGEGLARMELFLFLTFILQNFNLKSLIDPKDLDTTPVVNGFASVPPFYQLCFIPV
Chain of Serine/threonine-protein kinase PLK2 (Homo sapiens) (Q9NYY3 whole entry, looked up): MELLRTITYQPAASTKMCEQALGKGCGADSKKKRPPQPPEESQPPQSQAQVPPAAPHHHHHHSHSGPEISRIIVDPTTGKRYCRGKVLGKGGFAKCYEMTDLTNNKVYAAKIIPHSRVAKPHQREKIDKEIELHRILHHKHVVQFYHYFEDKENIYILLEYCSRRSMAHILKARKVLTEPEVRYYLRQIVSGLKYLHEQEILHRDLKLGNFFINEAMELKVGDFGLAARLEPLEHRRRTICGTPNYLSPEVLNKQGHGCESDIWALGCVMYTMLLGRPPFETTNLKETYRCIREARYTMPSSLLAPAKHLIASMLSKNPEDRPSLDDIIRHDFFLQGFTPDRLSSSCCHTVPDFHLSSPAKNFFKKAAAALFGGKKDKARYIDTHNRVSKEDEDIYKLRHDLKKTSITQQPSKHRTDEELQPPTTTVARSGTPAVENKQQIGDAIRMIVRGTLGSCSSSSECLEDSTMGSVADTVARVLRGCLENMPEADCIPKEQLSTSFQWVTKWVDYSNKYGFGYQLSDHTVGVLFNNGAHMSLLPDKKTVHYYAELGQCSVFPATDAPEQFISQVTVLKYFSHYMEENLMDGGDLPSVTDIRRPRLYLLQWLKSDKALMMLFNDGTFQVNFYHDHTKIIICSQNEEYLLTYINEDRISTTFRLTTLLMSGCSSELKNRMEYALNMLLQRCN
Chain of Cyclin-dependent kinase 5 (Q00535 whole entry): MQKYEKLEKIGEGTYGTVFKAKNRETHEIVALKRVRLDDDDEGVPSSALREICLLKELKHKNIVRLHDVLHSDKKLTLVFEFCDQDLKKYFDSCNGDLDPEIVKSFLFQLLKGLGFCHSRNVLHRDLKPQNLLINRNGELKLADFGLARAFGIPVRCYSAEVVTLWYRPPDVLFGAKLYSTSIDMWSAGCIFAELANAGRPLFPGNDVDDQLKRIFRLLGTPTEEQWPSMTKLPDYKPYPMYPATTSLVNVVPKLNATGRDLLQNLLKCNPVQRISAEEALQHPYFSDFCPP

SMILES: CC(C)n1nnc2ccc(-c3ccnc(Nc4cc(C(=O)N5CCCN(C)CC5)ccn4)c3)cc21
- MRT inf [1]: 1.77 h
- GI50 (HCT-116 [2]): 50 nM
- GI50 (HT-29): 560 nM
- IC50 [3]: > 500 nM
- IC50 [4]: > 500 nM
- IC50 [5]: > 500 nM
- IC50 [6]: 209 nM
- IC50 [7]: > 500 nM
- IC50 [8]: > 500 nM
- IC50 [9]: 2.9 nM
- half-life at 100 µM [10]: 25.2 min
- CLH [11]: 49.6 µL/min/mg
- remaining at 1 h, 100 µM [12]: 19.6%
- inhibition at 0.25 h, 10 µM (CYP2C9): 27.9%
- inhibition at 0.25 h, 10 µM (CYP2C19): 24.5%
- RatioGI50 [13]: 92.97
- RatioGI50 [14]: 173.46
- half-life [15]: 102 min
- Tmax [16]: 4.98 min
- Cmax [17]: 358 ng/mL
- AUC(0-inf) [18]: 373 ng·h/mL
- AUC(0-inf) [19]: 199 ng·h/mL
- MRT last [20]: 4.62 h
- inhibition [21]: > 90%
- inhibition [22]: < 50%
- inhibition [23]: < 50%
- inhibition [24]: < 50%
- inhibition (HCT-116 [25]): Dose-Dependent Effect
- Activity (HCT-116 [26]): Dose-Dependent Effect
- Activity (HCT-116 [27]): Active
- Activity (HCT-116 [28]): Active
- Activity (HCT-116 [29]): Dose-Dependent Effect
- Activity (HCT-116 [30]): Active
- Activity [31]: Non-Toxic
- Activity [32]: Non-Toxic
- Activity [33]: Non-Toxic
- Activity [34]: Non-Toxic
- Activity [35]: Non-Toxic
- Activity [36]: Non-Toxic
